In this test the test system is NL-RLuc virus (recombinant NL4-3 HIV with Renilla Luciferase gene). Kind of test: Inhibition of HIV replication (NL-RLuc virus in MT-2 cells, luciferase readout). The class given is cell-based, Human immunodeficiency virus (HIV). The conditions noted are these: MT2, 120 h. An outline of the steps: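 MT-2 cells infected with NL4-3-derived virus carrying Renilla luciferase in place of part of nef, grown 5 days with serial compound dilutions in RPMI 1640/10% FBS. Virus growth read as luciferase expression. EC50 from median effect equation, at least 2 experiments.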
With `COc1c(N2CCOCC2)ncnc1N1CCc2cc(-c3c(C)nc(C)c([C@H](OC(C)(C)C)C(=O)O)c3N3CCC(C)(C)CC3)ccc2C1` [Example 67, (S)-2-(tert-Butoxy)-2-(4-(4,4-dimethylpiperidin-1-yl)-5-(2-(5-methoxy-6-morpholinopyrimidin-4-yl)-1,2,3,4-tetrahydroisoquinolin-6-yl)-2,6-dimethylpyridin-3-yl)acetic Acid], the EC50 was 2 nM.

On to `Cc1ccccc1-c1cccc(N2CCc3cc(-c4c(C)nc(C)c([C@H](OC(C)(C)C)C(=O)O)c4N4CCC(C)(C)CC4)ccc3C2)n1` [Example 88, (S)-2-(tert-Butoxy)-2-(4-(4,4-dimethylpiperidin-1-yl)-2,6-dimethyl-5-(2-(6-(o-tolyl)pyridin-2-yl)-1,2,3,4-tetrahydroisoquinolin-6-yl)pyridin-3-yl)acetic Acid], for which the EC50 is 25 nM.

With `Cc1nc(C)c([C@H](OC(C)(C)C)C(=O)O)c(N2CCC(C)(C)CC2)c1-c1ccc2c(c1)CCN(c1ccnc(N3CCC(F)(F)CC3)n1)C2` [Example 76, (S)-2-(tert-Butoxy)-2-(5-(2-(2-(4,4-difluoropiperidin-1-yl)pyrimidin-4-yl)-1,2,3,4-tetrahydroisoquinolin-6-yl)-4-(4,4-dimethylpiperidin-1-yl)-2,6-dimethylpyridin-3-yl)acetic Acid], the EC50 is 3 nM.

`Cc1cccc(Cl)c1CN1CCc2cc(-c3c(CNCCCCCc4ccccc4)nc(C)c([C@H](OC(C)(C)C)C(=O)O)c3N3CCC(C)(C)CC3)ccc2C1` [Example 156, (S)-2-(tert-Butoxy)-2-(5-(2-(2-chloro-6-methylbenzyl)-1,2,3,4-tetrahydroisoquinolin-6-yl)-4-(4,4-dimethylpiperidin-1-yl)-2-methyl-6-(((5-phenylpentyl)amino)methyl)pyridin-3-yl)acetic Acid]: the EC50 stood at 65 nM.

In the case of `Cc1nc(C)c([C@H](OC(C)(C)C)C(=O)O)c(N2CCC(C)(C)CC2)c1-c1ccc2c(c1)CCN(c1cncc(N3CCOCC3)n1)C2` [Example 74, (S)-2-(tert-Butoxy)-2-(4-(4,4-dimethylpiperidin-1-yl)-2,6-dimethyl-5-(2-(6-morpholinopyrazin-2-yl)-1,2,3,4-tetrahydroisoquinolin-6-yl)pyridin-3-yl)acetic Acid], the 50% effective concentration (EC50) worked out at 1 nM.

On to `CC1(C)CCN(c2c(-c3ccc4c(c3)CCN(c3nccc(N5CCOCC5)n3)C4)c(CO)nc(Cl)c2[C@H](OC(C)(C)C)C(=O)O)CC1` [Example 151, (S)-2-(tert-Butoxy)-2-(2-chloro-4-(4,4-dimethylpiperidin-1-yl)-6-(hydroxymethyl)-5-(2-(4-morpholinopyrimidin-2-yl)-1,2,3,4-tetrahydroisoquinolin-6-yl)pyridin-3-yl)acetic Acid], for which the concentration giving a half-maximal response (EC50) amounted to 2 nM.

As to `Cc1nc(C)c([C@H](OC(C)(C)C)C(=O)O)c(N2CCC(C)(C)CC2)c1-c1ccc2c(c1)CCN(c1nccc(N3CCC(CC(C)(C)O)CC3)n1)C2` [Example 145, (S)-2-(tert-Butoxy)-2-(4-(4,4-dimethylpiperidin-1-yl)-5-(2-(4-(4-(2-hydroxy-2-methylpropyl)piperidin-1-yl)pyrimidin-2-yl)-1,2,3,4-tetrahydroisoquinolin-6-yl)-2,6-dimethylpyridin-3-yl)acetic Acid], the 50% effective concentration (EC50) was 10 nM.

For `CCC(C)(C)O[C@H](C(=O)O)c1c(C)ncc(-c2ccc3c(c2)CCN(Cc2c(C)cccc2Cl)C3)c1N1CCC(C)(C)CC1` [Example 53, (2S)-2-(5-{2-[(2-Chloro-6-methylphenyl)methyl]-1,2,3,4-tetrahydroisoquinolin-6-yl}-4-(4,4-dimethylpiperidin-1-yl)-2-methylpyridin-3-yl)-2-[(2-methylbutan-2-yl)oxy]acetic Acid], the 50% effective concentration (EC50) was 6 nM.

As for `CC1(C)CCN(c2c(-c3ccc4c(c3)CCN(c3nccc(N5CCC(C(C)(C)O)CC5)n3)C4)cnc(Cl)c2[C@H](OC(C)(C)C)C(=O)O)CC1` [Example 93, (S)-2-(tert-Butoxy)-2-(2-chloro-4-(4,4-dimethylpiperidin-1-yl)-5-(2-(4-(4-(2-hydroxypropan-2-yl)piperidin-1-yl)pyrimidin-2-yl)-1,2,3,4-tetrahydroisoquinolin-6-yl)pyridin-3-yl)acetic Acid], the EC50 stood at 8 nM.

With `Cc1nc(C)c([C@H](OC(C)(C)C)C(=O)O)c(N2CCC(C)(C)CC2)c1-c1ccc2c(c1)CCN(c1cc(N(C)CCCN(C)C)ncn1)C2` [Example 140, (S)-2-(tert-Butoxy)-2-(5-(2-(6-((3-(dimethylamino)propyl)(methyl)amino)pyrimidin-4-yl)-1,2,3,4-tetrahydroisoquinolin-6-yl)-4-(4,4-dimethylpiperidin-1-yl)-2,6-dimethylpyridin-3-yl)acetic Acid], the EC50 was found to be 35 nM.

As for `Cc1nc(NCCCN2CCN(C)CC2)c(-c2ccc3c(c2)CCN(c2ncnc4c2oc2ccccc24)C3)c(N2CCC(C)(C)CC2)c1[C@H](OC(C)(C)C)C(=O)O` [Example 16, (S)-2-(5-(2-(Benzofuro[3,2-d]pyrimidin-4-yl)-1,2,3,4-tetrahydroisoquinolin-6-yl)-4-(4,4-dimethylpiperidin-1-yl)-2-methyl-6-((3-(4-methylpiperazin-1-yl)propyl)amino)pyridin-3-yl)-2-(tert-butoxy)acetic Acid], the EC50 is 2 nM.

For the compound `Cc1nnc(-c2cc(N3CCc4cc(-c5c(C)nc(C)c([C@H](OC(C)(C)C)C(=O)O)c5N5CCC(C)(C)CC5)ccc4C3)ncn2)o1` [Example 131, (S)-2-(tert-Butoxy)-2-(4-(4,4-dimethylpiperidin-1-yl)-2,6-dimethyl-5-(2-(6-(5-methyl-1,3,4-oxadiazol-2-yl)pyrimidin-4-yl)-1,2,3,4-tetrahydroisoquinolin-6-yl)pyridin-3-yl)acetic Acid], the EC50 was 4 nM.

As to `Cc1nc(C)c([C@H](OC(C)(C)C)C(=O)O)c(N2CCC(C)(C)CC2)c1-c1ccc2c(c1)CCN(c1ccnc(N3CCN(CCO)CC3)n1)C2` [Example 85, (S)-2-(tert-Butoxy)-2-(4-(4,4-dimethylpiperidin-1-yl)-5-(2-(2-(4-(2-hydroxyethyl)piperazin-1-yl)pyrimidin-4-yl)-1,2,3,4-tetrahydroisoquinolin-6-yl)-2,6-dimethylpyridin-3-yl)acetic Acid], the EC50 came to 39 nM.

As to `Cc1cccc(Cl)c1CN1CCc2cc(-c3c(C(=O)O)nc(C)c([C@H](OC(C)(C)C)C(=O)O)c3N3CCC(C)(C)CC3)ccc2C1` [Example 116, (S)-5-(tert-Butoxy(carboxy)methyl)-3-(2-(2-chloro-6-methylbenzyl)-1,2,3,4-tetrahydroisoquinolin-6-yl)-4-(4,4-dimethylpiperidin-1-yl)-6-methylpicolinic Acid], the concentration for a half-maximal effect (EC50) came out at 4 nM.

Regarding `CCC(C)(C)O[C@H](C(=O)O)c1c(C)ncc(-c2ccc3c(c2)CCN(Cc2ccc(F)cc2C)C3)c1N1CCC(C)(C)CC1` [Example 54, (2S)-2-[4-(4,4-Dimethylpiperidin-1-yl)-5-{2-[(4-fluoro-2-methylphenyl)methyl]-1,2,3,4-tetrahydroisoquinolin-6-yl}-2-methylpyridin-3-yl]-2-[(2-methylbutan-2-yl)oxy]acetic Acid], the concentration for a half-maximal effect (EC50) was 12 nM.

(Values after patent US20200016136A1 (VIIV HEALTHCARE UK (NO. 5) LIMITED, priority 2017, published 2020).)
